One series has as its target JAK1 (Homo sapiens, UniProt P23458). In words: Kinase activity test (γ33P-ATP isotopic method), JAK1. It is filed as biochemical. The note with it: for IC50: 33P-ATP 10 μM, 2 h reaction; for activity in inhibiting the JAK1 kinase compared with Tofacitinib (in words): conclusion from Table 1. The protocol: (§1) This experiment adopted a γ^33p-ATP isotopic test method to test the inhibitory effect of a compound on kinases JAK1, JAK2, JAK3 and TYK2, and obtained a half inhibitory concentration IC50 of the compound for inhibiting activity of the kinase.
(§2) 20 mM 4-hydroxyethylpiperazine ethanesulfonic acid buffer (Hepes, pH 7.5), 10 mM magnesium chloride (MgCl2), 1 mM ethylene glycol diethyl ether diamine tetraacetic acid (EGTA), 0.02% dodecyl polyethylene glycol ether (Brij35), 0.02 mg/ml bovine serum albumin (BSA), 0.1 mM sodium vanadate (Na3VO4), 2 mM dithiothreitol (DTT), and 1% dimethylsulfoxide (DMSO).
(§3) A compound is dissolved with 100% DMSO to a specific concentration, and then subjected to gradient dilution by an automatic sampling device to obtain the samples to be tested with different concentrations (DMSO solutions).
(§4) 3.1 diluting the reaction substrate with the basic reaction buffer;
(§5) 3.2 adding the kinase into the substrate solution, and gently mixing well;
(§6) 3.3 adding, by the automatic sampling system, the 100% DMSO diluted compounds with different concentrations into the kinase solution, and incubating for 20 min at room temperature; and
(§7) 3.4 adding ^33p-ATP (10 μM, 10 μCi/μl) at room temperature to initiate the kinase reaction for a duration of 2 h.
(§8) The unreacted ATP and the reaction-generated […] in the reaction were removed by an ion exchange filtering system, and then the amount of radioactivity of ^33p isotope in the substrate was detected.
(§9) According to the amount of radioactivity, the kinase activities in the systems added with the inhibitors of different concentrations were calculated, to obtain the inhibitors' effects of the compounds of different concentrations on the kinase activity; and fitting was performed with graphpad prism to obtain the inhibitory IC50 values of the compounds.

The next series concerns the target JAK2 (Homo sapiens, UniProt O60674). In words: Kinase activity test (γ33P-ATP isotopic method), JAK2. Type of series: biochemical. The following applies: 33P-ATP 10 μM, 2 h reaction. The protocol:
as §1, §2, §3, §4, §5, §6, §7, §8, §9

For a further series, the target named is T1, JAK3 (Homo sapiens, UniProt P52333).
T1 sequence (P52333 1-1124): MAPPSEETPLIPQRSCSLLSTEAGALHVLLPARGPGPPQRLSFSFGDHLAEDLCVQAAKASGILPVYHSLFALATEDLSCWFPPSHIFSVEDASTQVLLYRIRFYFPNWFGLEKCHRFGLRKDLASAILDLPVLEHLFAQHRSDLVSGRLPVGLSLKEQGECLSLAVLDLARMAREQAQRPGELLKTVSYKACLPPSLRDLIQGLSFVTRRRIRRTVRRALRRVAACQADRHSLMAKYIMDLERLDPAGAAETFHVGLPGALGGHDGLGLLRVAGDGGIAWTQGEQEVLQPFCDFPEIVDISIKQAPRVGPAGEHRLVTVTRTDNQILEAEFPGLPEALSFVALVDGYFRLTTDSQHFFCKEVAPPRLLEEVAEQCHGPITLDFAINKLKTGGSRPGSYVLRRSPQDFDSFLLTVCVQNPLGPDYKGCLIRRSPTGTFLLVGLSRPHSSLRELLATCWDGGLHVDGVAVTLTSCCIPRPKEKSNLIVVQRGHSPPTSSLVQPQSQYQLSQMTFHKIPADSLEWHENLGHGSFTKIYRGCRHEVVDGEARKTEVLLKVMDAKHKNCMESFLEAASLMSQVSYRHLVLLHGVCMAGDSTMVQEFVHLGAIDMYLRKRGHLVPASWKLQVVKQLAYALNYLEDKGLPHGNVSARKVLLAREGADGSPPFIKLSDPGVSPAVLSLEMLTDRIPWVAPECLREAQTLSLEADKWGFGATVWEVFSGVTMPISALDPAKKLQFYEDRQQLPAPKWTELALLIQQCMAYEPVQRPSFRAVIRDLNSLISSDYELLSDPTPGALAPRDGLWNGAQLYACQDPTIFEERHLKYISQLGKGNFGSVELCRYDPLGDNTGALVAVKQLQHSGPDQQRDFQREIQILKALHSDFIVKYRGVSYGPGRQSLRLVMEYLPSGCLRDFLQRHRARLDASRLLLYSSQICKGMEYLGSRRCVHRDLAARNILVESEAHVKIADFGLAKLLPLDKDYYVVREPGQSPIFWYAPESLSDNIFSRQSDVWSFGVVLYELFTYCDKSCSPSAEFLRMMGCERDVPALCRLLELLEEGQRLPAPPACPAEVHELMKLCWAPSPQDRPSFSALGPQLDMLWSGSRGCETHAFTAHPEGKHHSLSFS
Put plainly: Kinase activity test (γ33P-ATP isotopic method), JAK3. Type of series: biochemical. The note with it: 33P-ATP 10 μM, 2 h reaction. As to the method:
as §1, §2, §3, §4, §5, §6, §7, §8, §9

The next series has as its target TYK2 (Homo sapiens, UniProt P29597). Put plainly: Kinase activity test (γ33P-ATP isotopic method), TYK2. The following applies: 33P-ATP 10 μM, 2 h reaction. It is filed as biochemical. The protocol:
as §1, §2, §3, §4, §5, §6, §7, §8, §9

A short description of series [1]: Liver microsome test (metabolic stability). Type of series: in vitro ADME, human. The following applies: for Remaining % (60 min) / half-life at 1 μmol/L / microsomal CLint at 1 μmol/L: human liver microsomes 0.5 mg/mL protein, compound 1 μmol/L, 37° C.; for half-life at 1 μmol/L / microsomal CLint at 1 μmol/L: pH 7.4; for microsomal CLint at 1 μmol/L: read-out: Clint (μL/min/mg protein). The protocol: In an incubation system with a total volume of 250 μL, an incubation solution of hum an liver microsomes containing 0.5 mg/mL protein was formulated with a 50 mmol/L PBS buffer (pH=7.4). Before the start of incubation, 2.5 μL of a 100 μmol/L compound to be tested was mixed with 197.5 μL of the above incubation buffer, pre-incubated for 5 min in a 37° C. water bath, and then added with 50 μL of a reducing coenzyme II solution (5 mmol/L) that was likewise pre-incubated for 5 min to start a reaction (in the reaction system, the protein content of liver microsomes from various species was 0.5 g/L, and the final concentration of the compound to be tested was 1 μmol/L), incubated in a 37° C. water bath with shaking, and taken out at 0, 5, 15, 30, and 60 min respectively. 600 μL of a methanol solution of mixed positive and negative internal standards with internal standards Terfenadine (positive ion internal standard, 25 ng/mL) and Tolbutamide (negative ion internal standard, 50 ng/mL) was immediately added to terminate the reaction. The incubation solution after termination was shaken for 2 min and centrifuged (4° C., 16000 r/min) for 10 min, and the supernatant was taken for LC-MS/MS detection to quantitatively analyze the remaining amount of the parent drug. (DMSO=0.1%).
The concentration of the compound at 0 mi incubation was regarded as 100%, and the concentrations at other incubation time points were converted into the remaining percentages. The natural logarithm of the remaining percentage at each time point was linearly regressed against the incubation time, and the slope k was calculated. According to the formula T1/2=−0.693/k, the in vitro half-life was calculated. Clearance in liver microsomes (CLint (μL/min/mg protein)=Ln (2)*1000/T1/2 (min/Protein Conc (mg/ml)).
On the technique in general: Liver microsomes are a subcellular fraction often used to study metabolism.

Series [2] concerns DSS induced mouse ulcerative colitis model. In words: Efficacy test in DSS induced mouse ulcerative colitis model. It is filed as in vivo. The following applies: for DAI score on day 8: once a day, mouse DSS model, DAI range 0-4. From the text: Mice of 6-7 weeks old were randomly grouped, 6 mice per group. Purified water was provided ad libitum to the mice in a negative control group, and a 2% solution of dextran sulfate sodium (DSS) was provided ad libitum to the mice in other groups, for 7 consecutive days. During the modeling, medication was given according to the groups, once a day for 7 days (the treatment groups and the mouse numbers can be adjusted according to the specific situation). Within 8-10 days later, the DSS-containing water was replaced with purified water, provided ad libitum to the mice. The normal administration continued for 3 days.
From the first day of administration, the general conditions such as metal state, eating, drinking and activities of the mice were respectively observed every day, the mice were weighed every day, and the animal stools were collected, evaluated for their traits and subjected to the occult blood test. The disease activity index (DAI) of experimental animals within 1-10 days were comprehensively assessed.
Scoring was performed according to the above-mentioned standards. The disease activity index (DAI) of each mouse was obtained by summing the scores of weight loss, stool trait and occult blood condition, to evaluate the disease activity. DAI=(score of weight loss+score of stool trait+score of bloody stool)/3, ranging from 0-4.
The experimental data was processed statistically, and the data are all expressed as mean±SD or mean±SME. The SPSS13.0 software was used for statistical analysis, and the differences among the groups were compared with t test (equal variance) or t′ test (unequal variance).

Sequence of JAK2 (O60674 whole entry): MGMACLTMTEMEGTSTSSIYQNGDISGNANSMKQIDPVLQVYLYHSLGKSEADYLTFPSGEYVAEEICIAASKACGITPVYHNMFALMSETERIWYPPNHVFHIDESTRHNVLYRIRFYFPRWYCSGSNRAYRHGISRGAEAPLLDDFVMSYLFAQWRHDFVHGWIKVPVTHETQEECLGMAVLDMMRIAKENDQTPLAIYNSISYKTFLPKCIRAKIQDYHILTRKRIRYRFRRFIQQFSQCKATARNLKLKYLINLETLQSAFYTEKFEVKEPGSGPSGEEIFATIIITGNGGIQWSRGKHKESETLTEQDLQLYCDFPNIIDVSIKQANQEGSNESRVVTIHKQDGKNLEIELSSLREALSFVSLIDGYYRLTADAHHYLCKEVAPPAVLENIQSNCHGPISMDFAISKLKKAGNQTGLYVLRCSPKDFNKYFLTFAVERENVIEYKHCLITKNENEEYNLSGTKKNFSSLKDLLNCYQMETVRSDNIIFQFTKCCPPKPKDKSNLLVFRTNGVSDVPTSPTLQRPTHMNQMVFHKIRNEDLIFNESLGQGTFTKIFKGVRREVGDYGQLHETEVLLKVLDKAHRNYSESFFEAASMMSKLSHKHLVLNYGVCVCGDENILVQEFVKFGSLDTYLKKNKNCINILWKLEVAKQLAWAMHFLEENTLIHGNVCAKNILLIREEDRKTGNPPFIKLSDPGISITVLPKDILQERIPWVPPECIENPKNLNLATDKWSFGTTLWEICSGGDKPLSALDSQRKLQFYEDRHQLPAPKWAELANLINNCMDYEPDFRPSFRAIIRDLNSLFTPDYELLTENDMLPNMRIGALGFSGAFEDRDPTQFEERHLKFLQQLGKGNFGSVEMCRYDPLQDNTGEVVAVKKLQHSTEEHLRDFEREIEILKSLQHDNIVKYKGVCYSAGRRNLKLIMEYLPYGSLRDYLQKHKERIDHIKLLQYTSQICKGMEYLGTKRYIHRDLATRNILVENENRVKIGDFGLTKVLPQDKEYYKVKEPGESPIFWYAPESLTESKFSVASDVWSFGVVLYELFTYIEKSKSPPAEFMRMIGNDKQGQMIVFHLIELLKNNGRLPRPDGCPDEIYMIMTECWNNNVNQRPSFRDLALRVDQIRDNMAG
Sequence of JAK1 (P23458 whole entry): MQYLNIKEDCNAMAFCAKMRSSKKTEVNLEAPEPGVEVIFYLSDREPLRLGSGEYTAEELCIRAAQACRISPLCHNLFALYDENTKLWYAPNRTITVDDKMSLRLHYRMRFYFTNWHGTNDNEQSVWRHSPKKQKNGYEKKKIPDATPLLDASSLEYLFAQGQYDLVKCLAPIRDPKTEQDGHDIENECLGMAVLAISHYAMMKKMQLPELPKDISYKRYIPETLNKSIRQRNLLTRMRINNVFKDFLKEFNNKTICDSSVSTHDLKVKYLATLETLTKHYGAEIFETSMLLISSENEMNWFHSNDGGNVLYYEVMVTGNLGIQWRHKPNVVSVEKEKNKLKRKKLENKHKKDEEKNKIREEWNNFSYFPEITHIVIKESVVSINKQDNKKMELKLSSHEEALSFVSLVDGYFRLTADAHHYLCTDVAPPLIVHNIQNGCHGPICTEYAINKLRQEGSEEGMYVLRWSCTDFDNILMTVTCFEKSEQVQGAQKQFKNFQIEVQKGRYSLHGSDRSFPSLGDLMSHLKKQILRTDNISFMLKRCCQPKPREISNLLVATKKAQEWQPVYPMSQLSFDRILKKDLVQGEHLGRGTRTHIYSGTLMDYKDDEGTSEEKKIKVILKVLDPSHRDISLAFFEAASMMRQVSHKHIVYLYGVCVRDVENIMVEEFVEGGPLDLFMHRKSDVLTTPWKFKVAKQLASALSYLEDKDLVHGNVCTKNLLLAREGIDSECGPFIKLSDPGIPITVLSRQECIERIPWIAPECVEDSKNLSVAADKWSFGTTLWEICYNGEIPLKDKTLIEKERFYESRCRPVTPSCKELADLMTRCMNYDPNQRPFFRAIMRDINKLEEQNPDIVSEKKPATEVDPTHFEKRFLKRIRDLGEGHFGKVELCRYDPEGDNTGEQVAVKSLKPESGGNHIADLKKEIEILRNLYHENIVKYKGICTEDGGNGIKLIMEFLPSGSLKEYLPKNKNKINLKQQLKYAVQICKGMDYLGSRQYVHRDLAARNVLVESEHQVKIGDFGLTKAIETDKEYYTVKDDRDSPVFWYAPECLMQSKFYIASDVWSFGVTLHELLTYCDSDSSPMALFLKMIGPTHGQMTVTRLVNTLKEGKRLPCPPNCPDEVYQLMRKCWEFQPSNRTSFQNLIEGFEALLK
Sequence of TYK2 (P29597 whole entry): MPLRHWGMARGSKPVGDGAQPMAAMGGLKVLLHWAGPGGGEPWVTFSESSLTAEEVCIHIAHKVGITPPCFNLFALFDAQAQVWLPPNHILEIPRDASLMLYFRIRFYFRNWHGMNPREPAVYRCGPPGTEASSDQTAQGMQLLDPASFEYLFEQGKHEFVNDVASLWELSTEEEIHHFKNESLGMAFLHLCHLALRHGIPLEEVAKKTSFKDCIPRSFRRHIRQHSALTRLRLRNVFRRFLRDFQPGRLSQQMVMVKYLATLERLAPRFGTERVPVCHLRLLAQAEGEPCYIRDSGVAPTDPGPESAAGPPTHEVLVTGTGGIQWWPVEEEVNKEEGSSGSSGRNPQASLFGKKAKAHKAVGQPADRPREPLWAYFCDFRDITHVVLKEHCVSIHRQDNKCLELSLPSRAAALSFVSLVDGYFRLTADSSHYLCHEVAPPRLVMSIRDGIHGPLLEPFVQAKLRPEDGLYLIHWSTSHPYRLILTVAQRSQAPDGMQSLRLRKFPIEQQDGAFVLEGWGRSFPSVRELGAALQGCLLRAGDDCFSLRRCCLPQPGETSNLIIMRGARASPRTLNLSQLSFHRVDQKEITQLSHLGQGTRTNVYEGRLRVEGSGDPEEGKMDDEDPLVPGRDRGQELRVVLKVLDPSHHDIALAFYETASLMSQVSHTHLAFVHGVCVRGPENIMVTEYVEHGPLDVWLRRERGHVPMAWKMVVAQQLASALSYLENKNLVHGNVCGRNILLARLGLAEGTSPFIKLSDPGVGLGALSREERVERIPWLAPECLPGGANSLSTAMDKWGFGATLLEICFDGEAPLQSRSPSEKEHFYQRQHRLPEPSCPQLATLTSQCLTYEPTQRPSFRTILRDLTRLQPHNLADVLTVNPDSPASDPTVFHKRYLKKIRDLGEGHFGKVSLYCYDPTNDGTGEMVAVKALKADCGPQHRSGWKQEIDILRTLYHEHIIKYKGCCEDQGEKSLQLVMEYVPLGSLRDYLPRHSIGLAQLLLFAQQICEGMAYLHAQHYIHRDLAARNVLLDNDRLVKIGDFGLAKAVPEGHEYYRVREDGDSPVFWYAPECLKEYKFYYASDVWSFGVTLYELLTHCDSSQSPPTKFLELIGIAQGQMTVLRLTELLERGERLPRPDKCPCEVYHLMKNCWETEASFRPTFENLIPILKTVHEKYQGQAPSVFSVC

By IC50 is commonly meant the midpoint of a concentration-inhibition curve. The low end stands for higher potency, the high end for lower potency. The term half-life denotes how long it takes for the measured level to halve. For `NC(=O)c1cnc2[nH]ccc2c1NN1CCC[C@H](C(=O)NCC(F)(F)F)C1` [Example 1, (S)-4-(3-(2,2,2-trifluoroethylcarbamoyl)piperidine-1-amino)-1H-7-azaindole-5-carboxamide], the IC50 is 0.29 nM against JAK1, 2.26 nM at JAK2, 2.7 nM against JAK3 and 3.28 nM against TYK2. For the same compound, the “activity in inhibiting the JAK1 kinase compared with Tofacitinib (in words)” value at JAK1 is recorded as “higher activity in inhibiting the JAK1 kinase than the positive drug control Tofacitinib”. Also, the “Remaining % (60 min)” value in series [1] came out at 59.0%. Moreover, the “metabolic stability in liver microsomes (in words)” value in series [1] (human liver microsomes, conclusion from Table 2) was “excellent metabolic activity in liver”. In series [1], the half-life at 1 μmol/L is 1.36 h. Moreover, the microsomal CLint at 1 μmol/L in series [1] was 17 µL/min/mg. Further, the figures for the “DAI score on day 8” value in series [2] (5 mg/kg group) and in series [2] (15 mg/kg group) were 2.8 and 2, respectively. Moreover, the “effect on DSS induced enteritis in mice (in words)” value in series [2] (relatively low dose) was “significant effect in inhibiting the DSS induced enteritis in mice”.

For the compound `NC(=O)c1cnc2[nH]ccc2c1NN1CCC[C@@H](C(=O)NCC(F)(F)F)C1` [Example 3, (R)-4-(3-(2,2,2-trifluoroethylcarbamoyl)piperidine-1-amino)-1H-7-azaindole-5-carboxamide], the IC50 was determined as 0.41 nM against JAK1, 11.6 nM on JAK2, 8.69 nM at JAK3 and 9.93 nM against TYK2. Moreover, the “activity in inhibiting the JAK1 kinase compared with Tofacitinib (in words)” value at JAK1 is recorded as “higher activity in inhibiting the JAK1 kinase than the positive drug control Tofacitinib”.

With `CCCNC(=O)[C@H]1CCCN(Nc2c(C(N)=O)cnc3[nH]ccc23)C1` [Example 5, (S)-4-(3-(n-propylcarbamoyl)piperidine-1-amino)-1H-7-azaindole-5-carboxamide], the IC50 came to 1.19 nM against JAK1, 54.8 nM at JAK2, 15.9 nM against JAK3 and 34.7 nM on TYK2.

For the compound `N#CCNC(=O)[C@H]1CCCN(Nc2c(C(N)=O)cnc3[nH]ccc23)C1` [Example 7], the IC50 against JAK1 stood at 0.39 nM; against JAK2, 1.32 nM; against JAK3 it was 0.71 nM; on TYK2, 1.98 nM. Besides, at JAK1, the “activity in inhibiting the JAK1 kinase compared with Tofacitinib (in words)” value was “higher activity in inhibiting the JAK1 kinase than the positive drug control Tofacitinib”.

Consider `CC(C)(C)OC(=O)N1CC2CN(Nc3c(C(N)=O)cnc4[nH]ccc34)CC2C1` (stereo not shown) [Example 12], for which the IC50 stood at 1.1 nM at JAK1, 16.7 nM against JAK2, 5.97 nM against JAK3 and 19 nM against TYK2.

Regarding `C[C@@H]1CCN(C(=O)CC#N)C[C@@H]1N(C)c1ncnc2[nH]ccc12` [Tofacitinib, reference compound], in series [1], the “Remaining % (60 min)” value is listed as 80.7%, the half-life at 1 μmol/L came out at 3.3 h and the microsomal CLint at 1 μmol/L came to 7 µL/min/mg. Further, the “DAI score on day 8” value in series [2] (5 mg/kg group) is 3.5.
